The target in the experiment is Chymotrypsinogen B (Bos taurus) (UniProt P00767). The experiment is described as follows: The compound was tested for inhibitory potency against Chymotrypsinogen.

Molecules are shown by their SMILES.

Chain of Chymotrypsinogen B (Bos taurus) (P00767 16-146 limits assumed, other chains not shown): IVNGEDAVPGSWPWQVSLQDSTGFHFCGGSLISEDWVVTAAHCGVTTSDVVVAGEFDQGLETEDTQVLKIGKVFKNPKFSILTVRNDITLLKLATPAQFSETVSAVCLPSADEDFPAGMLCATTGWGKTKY
Chain of Chymotrypsinogen B (Bos taurus) (P00767 149-245 limits assumed, other chains not shown): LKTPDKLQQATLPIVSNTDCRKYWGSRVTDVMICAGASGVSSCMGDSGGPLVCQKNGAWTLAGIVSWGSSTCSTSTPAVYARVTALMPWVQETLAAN

Turning to `O=C(Cc1ccccc1)c1cc2cc(CCl)ccc2oc1=O`, the K inact/Km worked out at 10000 M⁻¹ s⁻¹.

Turning to `O=C(Oc1ccccc1)c1cc2cc(CCl)ccc2oc1=O`, the K inact/Km was determined as 100000 M⁻¹ s⁻¹.

With `O=C(Nc1ccccc1)c1cc2cc(CCl)ccc2oc1=O`, the K inact/Km is 200 M⁻¹ s⁻¹.

`O=C(Sc1ccccc1)c1cc2cc(CCl)ccc2oc1=O`: the K inact/Km came out at 48000 M⁻¹ s⁻¹.

The compound `O=C(c1ccccc1)c1cc2cc(CCl)ccc2oc1=O` had a K inact/Km of 2400 M⁻¹ s⁻¹.

These data come from ChEMBL document CHEMBL1135275, “Structural approach of the mechanism of inhibition of alpha-chymotrypsin by coumarins” (Bioorg Med Chem Lett, 2002).
